# Data: patent publication US20210400971A1, “SAFENING COMPOSITIONS COMPRISING A PHENOXY HERBICIDE AND CLOQUINTOCET FOR CEREAL CROPS AND METHODS THEREOF” (DOW AGROSCIENCES LLC, priority 2018, published 2021)
# Read-outs that look alike come from different tables or passages of the source.
# Assays:
# [1] = tested on: durum wheat (Triticum durum; TRZDU); assay: 2016 field trial, Alberta: weed-free tolerance trial, visual phytotoxicity (head deformity) on durum wheat
# Method: (§1) One field trial was conducted in Alberta, Canada in 2016 to evaluate whether wheat injury caused by 2,4-D could be reduced by tank-mixing with a herbicide that is preformulated with cloquintocet acid. 2,4-D was applied as either an ester (660 gae/L 2,4-D EHE) or choline salt (456 gae/L 2,4-D choline) at a rate of 700 gae/ha. […] Some treatments were applied with Intake adjuvant at 1% v/v. Intake is a blend of a non-ionic surfactant and a paraffinic oil and is used to improve the spreading and wetting of herbicides. Herbicide treatments were made to spring wheat (Triticum aestivum) and durum wheat (Triticum durum) at the B12-B13 stage. Head deformity was evaluated at 42, 55 and 71 days after treatment (DAT).
# (§2) This trial was established a weed-free tolerance trial. All herbicide treatments were applied post-emergence in the spring (e.g., Jun. 2, 2016). Herbicides were applied with a tractor-mounted sprayer using CO2 as a propellant. The sprayer delivered a uniform spray pattern that provided thorough coverage of the foliage using a 100 L/ha spray volume. Applications were made to spring wheat and durum wheat at the 2-3 leaf stage. Phytotoxicity to wheat was visually assessed as percent overall injury, compared to an untreated control plot. The overall injury assessments were based on visual ratings of growth inhibition, leaf deformity, epinasty, chlorosis, and delay in maturity. The primary injury observed with 2,4-D was head deformity, and therefore those are the only evaluations summarized below. The trial was designed as a randomized complete block with four replicates. Referring now to Table 1, 2,4-D ester (e.g., 2,4-D EHE) and 2,4-D choline at a rate of 700 gae/ha caused head deformity to spring wheat peaking at 8% and to durum wheat peaking at 4%. […] The results provide that cloquintocet (or herbicides containing cloquintocet) could be mixed with 2,4-D ester or choline to reduce head deformity in spring wheat caused by early applications of 2,4-D.
# [2] = tested on: spring wheat (Triticum aestivum; TRZAS); assay: 2016 field trial, Alberta: weed-free tolerance trial, visual phytotoxicity (head deformity) on spring wheat
# Method: as §1, §2
# wheat = conditions: cited from earlier work
# [3] = tested on: durum wheat (Triticum durum; TRZDU); conditions: in vivo
# Method: (§3) Two weed-free tolerance field trials were conducted in Alberta and Manitoba, Canada in 2017 to evaluate whether wheat injury caused by 2,4-D ester could be reduced by tank-mixing with cloquintocet-containing products. […] The rate of cloquintocet parent acid delivered by the tank-mix partners ranged from 3.5 to 63.7 gae/ha. All herbicide treatments were applied post-emergence in the spring (Jun. 16, 2017 to Jun. 26, 2017). Herbicides were applied with tractor- or bicycle-mounted sprayers using CO2 as a propellant. The sprayer delivered a uniform spray pattern that provided thorough coverage of the foliage using a 100 L/ha spray volume. Applications were made to spring wheat (Triticum aestivum) and durum wheat (Triticum durum) at the three-leaf stage. Phytotoxicity to wheat was visually assessed as percent overall injury, compared to an untreated control plot. The overall injury assessments were based on visual ratings of growth inhibition, leaf deformity, epinasty, chlorosis, and delay in maturity. […] Head deformity was evaluated at 10 to 12 weeks after treatment (WAT). The trial was designed as a randomized complete block with four replicates.
# [4] = tested on: spring wheat (Triticum aestivum; TRZAS); conditions: in vivo
# Method: as §3
# [5] = tested on: durum wheat (Triticum durum; TRZDU); assay: 2018 field trials, Alberta, Saskatchewan and Manitoba: growth inhibition, head deformity and yield loss on durum wheat; type: in vivo; conditions: herbicide 700 gae/ha; for % Growth Inhibition (66 DAT) TRZDU / % Head Deformity (66 DAT) TRZDU / % Yield Loss (77 DAT) TRZDU: Field Trial 1; for % Yield Loss (77 DAT) TRZDU: relative to commercial standard REXADE A at 20 gae/ha; for % Growth Inhibition (7 DAT) TRZDU: Field Trial 2; for % Growth Inhibition (14 DAT) TRZDU: Field Trial 3
# Method: (§4) Growth inhibition was evaluated at 7, 14, and 66 days after treatment (DAT), head deformity was evaluated at 66 days after treatment (DAT), and yield was taken at 77 days after treatment (DAT). All treatments are illustrated in Table 3.
# Weed-free tolerance trials were established.
# [6] = tested on: spring wheat (Triticum aestivum; TRZAS); assay: 2018 field trials, Alberta, Saskatchewan and Manitoba: growth inhibition, head deformity and yield loss on spring wheat; type: in vivo; conditions: for % Growth Inhibition (66 DAT) TRZAS / % Head Deformity (66 DAT) TRZAS / % Yield Loss (77 DAT) TRZAS: Field Trial 1; for % Growth Inhibition (66 DAT) TRZAS / % Head Deformity (66 DAT) TRZAS / % Yield Loss (77 DAT) TRZAS / % Growth Inhibition (7 DAT) TRZAS / % Growth Inhibition (14 DAT) TRZAS: herbicide 700 gae/ha; for % Yield Loss (77 DAT) TRZAS: relative to commercial standard REXADE A at 20 gae/ha; for % Growth Inhibition (7 DAT) TRZAS: Field Trial 2; for % Growth Inhibition (14 DAT) TRZAS: Field Trial 3
# Method: as §4
# Weed-free tolerance trials were established. […] The primary injury observed with 2,4-D was growth inhibition, head deformity, and yield loss, therefore those are the only evaluations summarized below.
# [7] = 42 DAT, herbicide 700 gae/ha, safener 0, Intake @1% v/v
# [8] = 55 DAT, herbicide 700 gae/ha, safener 0, Intake @1% v/v
# [9] = 71 DAT, herbicide 700 gae/ha, safener 0, Intake @1% v/v
compound,measurement,setting,value
"O=C(O)COc1ccc(Cl)cc1Cl [2,4-D Choline, 2-hydroxy-N,N,N-trimethylethanaminium 2-(2,4-dichlorophenoxy)acetate]",% TRZDU Head Deformity,[1]; [7],0.0%
same,% TRZDU Head Deformity,[1]; [8],3.5%
same,% TRZDU Head Deformity,[1]; [9],0.8%
same,% TRZAS Head Deformity,[2]; [7],5.8%
same,% TRZAS Head Deformity,[2]; [8],5.8%
same,% TRZAS Head Deformity,[2]; [9],3.0%
"2,4-D amine",wheat yield reduction,wheat; applied at Stage 13,35%
same,wheat yield reduction,wheat; applied at Stage 44,15%
"CCCCC(CC)COC(=O)COc1ccc(Cl)cc1Cl (stereo not drawn) [2,4-D Ester, 2-ethylhexyl 2-(2,4-dichlorophenoxy)acetate]","head deformity to durum wheat, peak",[3],≤ 4%
same,% TRZDU Head Deformity,[3]; 12 weeks,0.0%
same,"head deformity to spring wheat, peak",[4],≤ 10%
same,"head deformity to durum wheat, peak","[1]; Triticum durum (durum wheat), in vivo",≤ 4%
same,% TRZDU Head Deformity,"[1]; Triticum durum (durum wheat), in vivo, 42 days",0.0%
same,% TRZDU Head Deformity,"[1]; Triticum durum (durum wheat), in vivo, 55 days",4.3%
same,% TRZDU Head Deformity,"[1]; Triticum durum (durum wheat), in vivo, 71 days",3.0%
same,% Growth Inhibition (66 DAT) TRZDU,"[5]; safener 0, Agral 90 @ […]",1.9%
same,% Head Deformity (66 DAT) TRZDU,"[5]; safener 0, Agral 90 @ […]",5.3%
same,% Growth Inhibition (66 DAT) TRZDU,"[5]; safener 0, no adjuvant",2.6%
same,% Head Deformity (66 DAT) TRZDU,"[5]; safener 0, no adjuvant",5%
same,% Yield Loss (77 DAT) TRZDU,"[5]; safener 0, Agral 90 @ […]",8.8%
same,% Yield Loss (77 DAT) TRZDU,"[5]; safener 0, no adjuvant",6.1%
same,% Growth Inhibition (7 DAT) TRZDU,"[5]; safener 0, Agral 90 @ […]",8.5%
same,% Growth Inhibition (7 DAT) TRZDU,"[5]; safener 0, no adjuvant",5.5%
same,% Growth Inhibition (14 DAT) TRZDU,"[5]; safener 0, Agral 90 @ […]",8.5%
same,% Growth Inhibition (14 DAT) TRZDU,"[5]; safener 0, no adjuvant",7%
same,wheat yield reduction,wheat; applied at Stage 13,39%
same,wheat yield reduction,wheat; applied at Stage 44,16%
same,"head deformity to spring wheat, peak","[2]; Triticum aestivum (spring wheat), in vivo",≤ 8%
same,% TRZAS Head Deformity,"[2]; Triticum aestivum (spring wheat), in vivo, 42 days",6.5%
same,% TRZAS Head Deformity,"[2]; Triticum aestivum (spring wheat), in vivo, 55 days",7.5%
same,% TRZAS Head Deformity,"[2]; Triticum aestivum (spring wheat), in vivo, 71 days",7.8%
same,injury,"[6]; 2018 trials, applied alone or with Agral 90, spring and durum wheat","caused growth inhibition, head deformity and yield loss"
same,% Growth Inhibition (66 DAT) TRZAS,"[6]; safener 0, Agral 90 @ […]",9.1%
same,% Head Deformity (66 DAT) TRZAS,"[6]; safener 0, Agral 90 @ […]",40%
same,% Growth Inhibition (66 DAT) TRZAS,"[6]; safener 0, no adjuvant",10.1%
same,% Head Deformity (66 DAT) TRZAS,"[6]; safener 0, no adjuvant",40%
same,% Yield Loss (77 DAT) TRZAS,"[6]; safener 0, Agral 90 @ […]",3.3%
same,% Yield Loss (77 DAT) TRZAS,"[6]; safener 0, no adjuvant",4.5%
same,% Growth Inhibition (7 DAT) TRZAS,"[6]; safener 0, Agral 90 @ […]",8%
same,% Growth Inhibition (7 DAT) TRZAS,"[6]; safener 0, no adjuvant",4.5%
same,% Growth Inhibition (14 DAT) TRZAS,"[6]; safener 0, Agral 90 @ […]",7.5%
same,% Growth Inhibition (14 DAT) TRZAS,"[6]; safener 0, no adjuvant",7%
